# Experimental data taken from PubChem BioAssay (NCI).
#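 How tested: cells in 96-well plates exposed to compound for 48 hours at five concentrations. The concentration for 50% growth inhibition is given as GI50. TGI: total growth inhibition.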
# How the values were obtained:
# Assay in all cases: NCI anticancer screen, dose series, 48 h
# [1] = system: TK-10 renal
# [2] = system: DU-145 prostate
# [3] = system: UACC-62 melanoma
# [4] = system: U251 CNS
# [5] = system: HCT-116 colon
# [6] = system: HOP-92 NSCLC
# [7] = system: MOLT-4 leukemia
# [8] = system: ACHN renal
# [9] = system: SNB-75 CNS
# [10] = system: NCI/ADR-RES ovarian
# [11] = system: HS 578T breast
# [12] = system: HCC-2998 colon
# [13] = system: CAKI-1 renal
# [14] = system: 786-0 renal
# [15] = system: SF-295 CNS
# [16] = system: CCRF-CEM leukemia
# [17] = system: NCI-H23 lung
# [18] = system: NCI-H460 lung
# [19] = system: NCI-H226 lung
# [20] = system: A498 renal
# [21] = system: SF-539 CNS
# [22] = system: COLO 205 colon
# [23] = system: BT-549 breast
# [24] = system: OVCAR-3 ovarian
# [25] = system: M14 melanoma
# [26] = system: SN12C renal
# [27] = system: HCT-15 colon
# [28] = system: SK-MEL-5 melanoma
# [29] = system: KM12 colon
# [30] = system: HT29 colon
# [31] = system: OVCAR-4 ovarian
# [32] = system: HOP-62 NSCLC
# [33] = system: RXF 393 renal
# [34] = system: K-562 leukemia
# [35] = system: NCI-H522 lung
# [36] = system: T-47D breast
# [37] = system: EKVX NSCLC
# [38] = system: OVCAR-8 ovarian
# [39] = system: LOX IMVI melanoma
# [40] = system: MDA-MB-231 breast
# [41] = system: IGROV1 ovarian
# [42] = system: OVCAR-5 ovarian
# [43] = system: SW-620 colon
# [44] = system: SK-MEL-28 melanoma
# [45] = system: PC-3 prostate
# [46] = system: MDA-MB-435
# [47] = system: UO-31 renal
# [48] = system: A549 NSCLC
# [49] = system: SK-OV-3 ovarian
# [50] = system: SF-268 CNS
# [51] = system: RPMI-8226 leukemia
# [52] = system: SK-MEL-2 melanoma
# [53] = system: MCF7 breast
compound,measurement,setting,value
N#Cc1cc2c(cc1Cl)SC(=Nc1ccccc1)N(S(=O)(=O)c1ccc(Br)s1)S2(=O)=O,GI50,[1],19.7 µM
same,TGI,[1],35.6 µM
same,GI50,[2],20.6 µM
same,TGI,[2],43.4 µM
same,GI50,[3],20.8 µM
same,TGI,[3],36.3 µM
same,GI50,[4],19.4 µM
same,TGI,[4],42.5 µM
same,GI50,[5],15.9 µM
same,TGI,[5],33.7 µM
same,GI50,[6],17.6 µM
same,TGI,[6],39.7 µM
same,GI50,[7],15.9 µM
same,TGI,[7],46.2 µM
same,GI50,[8],19.7 µM
same,TGI,[8],37.3 µM
same,GI50,[9],24 µM
same,TGI,[9],51.7 µM
same,GI50,[10],19.8 µM
same,TGI,[10],43.8 µM
same,GI50,[11],24 µM
same,TGI,[11],53.9 µM
same,GI50,[12],14.7 µM
same,TGI,[12],30.8 µM
same,GI50,[13],17.5 µM
same,TGI,[13],33.8 µM
same,GI50,[14],16.7 µM
same,TGI,[14],32.4 µM
same,GI50,[15],30.4 µM
same,TGI,[15],89.5 µM
same,GI50,[16],21.8 µM
same,TGI,[16],45 µM
same,GI50,[17],19.3 µM
same,TGI,[17],38 µM
same,GI50,[18],23.1 µM
same,TGI,[18],53 µM
same,GI50,[19],28.8 µM
same,TGI,[19],55.8 µM
same,GI50,[20],21.9 µM
same,TGI,[20],38 µM
same,GI50,[21],21.6 µM
same,TGI,[21],39 µM
same,GI50,[22],49.1 µM
same,TGI,[22],> 100 µM
same,GI50,[23],17.7 µM
same,TGI,[23],32.2 µM
same,GI50,[24],15.9 µM
same,TGI,[24],32 µM
same,GI50,[25],14.8 µM
same,TGI,[25],30.6 µM
same,GI50,[26],24 µM
same,TGI,[26],49.6 µM
same,GI50,[27],17.9 µM
same,TGI,[27],38.8 µM
same,GI50,[28],16 µM
same,TGI,[28],30.3 µM
same,GI50,[29],18.7 µM
same,TGI,[29],35.7 µM
same,GI50,[30],32.3 µM
same,TGI,[30],> 100 µM
same,GI50,[31],20.9 µM
same,TGI,[31],44 µM
same,GI50,[32],19.1 µM
same,TGI,[32],35.9 µM
same,GI50,[33],15.1 µM
same,TGI,[33],45.1 µM
same,GI50,[34],14.5 µM
same,TGI,[34],43.8 µM
same,GI50,[35],15.5 µM
same,TGI,[35],39.1 µM
same,GI50,[36],24.3 µM
same,TGI,[36],75 µM
same,GI50,[37],19.5 µM
same,TGI,[37],35.1 µM
same,GI50,[38],18.9 µM
same,TGI,[38],47.9 µM
same,GI50,[39],18.8 µM
same,TGI,[39],43.6 µM
same,GI50,[40],22.8 µM
same,TGI,[40],42.1 µM
same,GI50,[41],12.8 µM
same,TGI,[41],31.1 µM
same,GI50,[42],19.7 µM
same,TGI,[42],39.2 µM
same,GI50,[43],18.9 µM
same,TGI,[43],40 µM
same,GI50,[44],19.5 µM
same,TGI,[44],44.1 µM
same,GI50,[45],17.8 µM
same,TGI,[45],37.3 µM
same,GI50,[46],16.1 µM
same,TGI,[46],33.9 µM
same,GI50,[47],15.1 µM
same,TGI,[47],36.4 µM
same,GI50,[48],24.7 µM
same,TGI,[48],66.6 µM
same,GI50,[49],39.6 µM
same,TGI,[49],> 100 µM
same,GI50,[50],20.6 µM
same,TGI,[50],47.2 µM
same,GI50,[51],23.6 µM
same,TGI,[51],67.6 µM
same,GI50,[52],15 µM
same,TGI,[52],37.8 µM
same,GI50,[53],13.6 µM
same,TGI,[53],39.5 µM
